One may read the EC50 as the concentration needed to bring the measured effect to its halfway point.

EC50 data for 26 compounds are collected here from patent US11046680B1, “Heteroaryl-substituted triazoles as APJ receptor agonists” (priority 2016, dated 2021).

Chain of human APJ receptor (P35414 whole entry): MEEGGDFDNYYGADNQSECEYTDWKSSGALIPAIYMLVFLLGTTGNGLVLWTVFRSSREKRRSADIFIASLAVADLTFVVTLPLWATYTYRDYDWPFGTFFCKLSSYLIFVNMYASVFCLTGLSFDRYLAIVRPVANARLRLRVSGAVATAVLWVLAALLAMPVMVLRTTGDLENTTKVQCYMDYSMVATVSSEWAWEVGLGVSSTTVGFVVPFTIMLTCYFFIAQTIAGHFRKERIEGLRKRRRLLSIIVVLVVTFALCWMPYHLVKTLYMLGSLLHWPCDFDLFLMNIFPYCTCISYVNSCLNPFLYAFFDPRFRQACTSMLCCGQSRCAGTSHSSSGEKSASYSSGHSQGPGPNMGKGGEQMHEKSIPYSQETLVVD

The target in this assay is human APJ receptor (Homo sapiens (Human), UniProt P35414). In words: biochemical. Format: biochemical. Particulars: [35S]GTPγS binding, CHO membranes expressing human APJ receptor; read-out: Activity hAPJ SPA EC50 IP. The procedure, abridged:
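Membranes of a stable CHO line carrying human APJ (pFLAG-CMV-3) were used in a GTPγS binding format; buffer GDP, MgCl2 and NaCl were optimized, and plates were read after 90 min at RT.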
(In general: GTPγS is a poorly hydrolysed GTP analogue; its binding reports G protein activation.)
On to `COc1ccc(Br)cc1-n1c(NS(=O)(=O)CCc2ccc(Cl)cc2)nnc1-c1cccs1` [Example 133.0, N-(4-(5-Bromo-2-methoxyphenyl)-5-(thiophen-2-yl)-4H-1,2,4-triazol-3-yl)-2-(4-chlorophenyl)ethanesulfonamide], for which the EC50 turned out to be 363 nM.
With `COc1cccc(OC)c1-n1c(NS(=O)(=O)[C@@H](C)[C@H](OC)c2ncc(C)cn2)nnc1-c1nccs1` [Example 341.0, (1R,2S)-N-(4-(2,6-dimethoxyphenyl)-5-(1,3-thiazol-2-yl)-4H-1,2,4-triazol-3-yl)-1-methoxy-1-(5-methyl-2-pyrimidinyl)-2-propanesulfonamide], the EC50 came out at 0.73 nM.
Take `COc1cccc(OC)c1-n1c(NS(=O)(=O)[C@H](C)[C@H](O)c2ncc(C)cn2)nnc1-c1nc(C)cs1` (single isomer, unassigned) [Example 316.0, (1R,2R)-N-(4-(2,6-dimethoxyphenyl)-5-(4-methylthiazol-2-yl)-4H-1,2,4-triazol-3-yl)-1-hydroxy-1-(5-methylpyrimidin-2-yl)propane-2-sulfonamide or (1S,2S)-N-(4-(2,6-dimethoxyphenyl)-5-(4-methylthiazol-2-yl)-4H-1,2,4-triazol-3-yl)-1-hydroxy-1-(5-methylpyrimidin-2-yl)propane-2-sulfonamide]: the EC50 turned out to be 81 nM.
`CCn1ccc(-c2nnc(NS(=O)(=O)[C@@H](C)[C@@](O)(c3ncc(C)cn3)C(F)(F)F)n2-c2c(OC)cccc2OC)n1` [Example 390.0, (2S,3R)-N-(4-(2,6-Dimethoxyphenyl)-5-(1-ethyl-1H-pyrazol-3-yl)-4H-1,2,4-triazol-3-yl)-4,4,4-trifluoro-3-hydroxy-3-(5-methylpyrimidin-2-yl)butane-2-sulfonamide and (2S,3S)-N-(4-(2,6-dimethoxyphenyl)-5-(1-ethyl-H-pyrazol-3-yl)-4H-1,2,4-triazol-3-yl)-4,4,4-trifluoro-3-hydroxy-3-(5-methylpyrimidin-2-yl)butane-2-sulfonamide]: the EC50 was 73 nM.
In the case of `COc1cnc([C@@H](OC)[C@H](C)S(=O)(=O)Nc2nnc(-c3ccn(C)n3)n2-c2c(OC)cccc2OC)cn1` (single isomer, unassigned) [Example 308.0, (1R,2S)-N-(4-(2,6-dimethoxyphenyl)-5-(1-methyl-1H-pyrazol-3-yl)-4H-1,2,4-triazol-3-yl)-1-methoxy-1-(5-methoxy-2-pyrazinyl)-2-propanesulfonamide or (1S,2R)-N-(4-(2,6-dimethoxyphenyl)-5-(1-methyl-1H-pyrazol-3-yl)-4H-1,2,4-triazol-3-yl)-1-methoxy-1-(5-methoxy-2-pyrazinyl)-2-propanesulfonamide], the EC50 was found to be 0.58 nM.
As for `COc1cccc(OC)c1-n1c(NS(=O)(=O)[C@H](C)[C@@H](OC)c2ncc(F)cn2)nnc1-c1ccn(C)n1` (single isomer, unassigned) [Example 117.0, (1S,2R)-N-(4-(2,6-dimethoxyphenyl)-5-(1-methyl-1H-pyrazol-3-yl)-4H-1,2,4-triazol-3-yl)-1-(5-fluoropyrimidin-2-yl)-1-methoxypropane-2-sulfonamide or (1R,2S)-N-(4-(2,6-dimethoxyphenyl)-5-(1-methyl-1H-pyrazol-3-yl)-4H-1,2,4-triazol-3-yl)-1-(5-fluoropyrimidin-2-yl)-1-methoxypropane-2-sulfonamide], the figure is 0.69 nM; as for `COCC[C@@H]([C@H](C)c1ncc(F)cn1)S(=O)(=O)Nc1nnc(-c2nc(C)cs2)n1-c1c(OC)cccc1OC` (single isomer, unassigned) [Example 19.0], 6.3 nM.
Take `COc1cccc(OC)c1-n1c(NS(=O)(=O)[C@@H](C)[C@H](OC)c2ncc(C)cn2)nnc1-c1ccn(C(F)F)n1` [Example 203.0, (1R,2S)-N-(5-(1-(difluoromethyl)-1H-pyrazol-3-yl)-4-(2,6-dimethoxyphenyl)-4H-1,2,4-triazol-3-yl)-1-methoxy-1-(5-methyl-2-pyrimidinyl)-2-propanesulfonamide]: the concentration giving a half-maximal response (EC50) came to 2.1 nM.
`COCC1(n2c(NS(=O)(=O)[C@@H](C)[C@H](OC)c3ncc(Cl)cn3)nnc2-c2nn(C)c3c2CCCC3)CC1` [Example 513.0, (1R,2S)-1-(5-chloropyrimidin-2-yl)-1-methoxy-N-(4-(1-(methoxymethyl)cyclopropyl)-5-(1-methyl-4,5,6,7-tetrahydro-1H-indazol-3-yl)-4H-1,2,4-triazol-3-yl)propane-2-sulfonamide]: the half-maximal effective concentration (EC50) was found to be 3.1 nM.
As for `COc1cccc(OC)c1-n1c(NS(=O)(=O)[C@@H](C)[C@H](OC)c2ncc(C)cn2)nnc1-c1cnn2ccccc12` [Example 415.0, (1R,2S)-N-(4-(2,6-dimethoxyphenyl)-5-(pyrazolo[1,5-a]pyridin-3-yl)-4H-1,2,4-triazo1-3-yl)-1-methoxy-1-(5-methylpyrimidin-2-yl)propane-2-sulfonamide], the figure is 5.2 nM; as for `COc1cccc(OC)c1-n1c(NS(=O)(=O)[C@@H](C)[C@H](OC)c2ncc(C)cn2)nnc1-c1ncnc2cc[nH]c12` [Example 435.0, (1R,2S)-N-(4-(2,6-dimethoxyphenyl)-5-(5H-pyrrolo[3,2-d]pyrimidin-4-yl)-4H-1,2,4-triazol-3-yl)-1-methoxy-1-(5-methylpyrimidin-2-yl)propane-2-sulfonamide], 180 nM.
For `COc1cccc(OC)c1-n1c(NS(=O)(=O)[C@H](C)Cc2ncc(F)cn2)nnc1-c1nc(C(C)C)cs1` [Example 156.0], the EC50 was 0.32 nM.
As for `COc1cccc(OC)c1-n1c(NS(=O)(=O)[C@@H](C)[C@H](C)c2ncc(C)cn2)nnc1-c1noc2ccccc12` [Example 77.0, (2S,3R)-N-(5-(benzo[d]isoxazol-3-yl)-4-(2,6-dimethoxyphenyl)-4H-1,2,4-triazol-3-yl)-3-(5-methylpyrimidin-2-yl)butane-2-sulfonamide], the EC50 stood at 4.1 nM.
Take `COc1cccc(OC)c1-n1c(NS(=O)(=O)[C@@H](C)[C@H](C)c2ncc(F)cn2)nnc1-c1nc(C)cs1` (single isomer, unassigned) [Example 120.0]: the EC50 worked out at 0.17 nM.
`COc1cccc(OC)c1-n1c(NS(=O)(=O)CCc2ccc(Cl)cc2)nnc1-c1cc(C)on1` [Example 145.0, 2-(4-chlorophenyl)-N-(4-(2,6-dimethoxyphenyl)-5-(5-methylisoxazol-3-yl)-4H-1,2,4-triazol-3-yl)ethanesulfonamide]: the EC50 came to 71 nM.
To `COc1cccc(OC)c1-n1c(NS(=O)(=O)CCc2ccc(F)cc2C#N)nnc1-c1nc(C(C)C)cs1` [Example 151.0, 2-(2-cyano-4-fluorophenyl)-N-(4-(2,6-dimethoxyphenyl)-5-(4-isopropylthiazol-2-yl)-4H-1,2,4-triazol-3-yl)ethanesulfonamide] belongs 31 nM; to `COc1cccc(OC)c1-n1c(NS(=O)(=O)[C@@H](C)Cc2ncc(F)cn2)nnc1-c1cccnn1` (single isomer, unassigned) [Example 33.0, (2S)-N-(4-(2,6-dimethoxyphenyl)-5-(3-pyridazinyl)-4H-1,2,4-triazol-3-yl)-1-(5-fluoro-2-pyrimidinyl)-2-propanesulfonamide or (2R)-N-(4-(2,6-dimethoxyphenyl)-5-(3-pyridazinyl)-4H-1,2,4-triazol-3-yl)-1-(5-fluoro-2-pyrimidinyl)-2-propanesulfonamide], 190 nM; to `COc1cccc(OC)c1-n1c(NS(=O)(=O)CCc2ccc(Cl)cc2)nnc1-c1ncc(C)s1` [Example 143.0, 2-(4-chlorophenyl)-N-(4-(2,6-dimethoxyphenyl)-5-(5-methylthiazol-2-yl)-4H-1,2,4-triazol-3-yl)ethanesulfonamide], 236 nM.
`CCS(=O)(=O)Nc1nnc(-c2ccn(C)n2)n1-c1c(OC)cccc1OC` [Example 267.0, N-(4-(2,6-dimethoxyphenyl)-5-(1-methyl-1H-pyrazol-3-yl)-4H-1,2,4-triazol-3-yl)ethanesulfonamide]: the EC50 was 82 nM.
To `COc1cccc(OC)c1-n1c(NS(=O)(=O)CC[C@@H](O)C2CCCC2)nnc1-c1cccs1` (mixture of isomers) [Example 362.0, (R)-3-Cyclopentyl-N-(4-(2,6-dimethoxyphenyl)-5-(thiophen-2-yl)-4H-1,2,4-triazol-3-yl)-3-hydroxypropane-1-sulfonamide and (S)-3-cyclopentyl-N-(4-(2,6-dimethoxyphenyl)-5-(thiophen-2-yl)-4H-1,2,4-triazol-3-yl)-3-hydroxypropane-1-sulfonamide] belongs 3 nM; to `COc1cccc(OC)c1-n1c(NS(=O)(=O)[C@@H](C)[C@H](OC)c2ncc(C)cn2)nnc1-c1noc(C)c1C` [Example 516.0], 18 nM.
With `COCC[C@@H]([C@H](C)c1ncc(F)cn1)S(=O)(=O)Nc1nnc(-c2nc(C)cs2)n1-c1c(OC)cccc1OC` (single isomer, unassigned) [Example 21.0], the EC50 is 90 nM.
As for `COc1ccccc1-n1c(NS(=O)(=O)CCc2ccc(F)cc2)nnc1-c1cccs1` [Example 359.0, 2-(4-Fluorophenyl)-N-(4-(2-methoxyphenyl)-5-(thiophen-2-yl)-4H-1,2,4-triazol-3-yl)ethanesulfonamide], the figure is 143 nM; as for `COc1ncnc(OC)c1-n1c(NS(=O)(=O)[C@@H](C)[C@H](C)c2ncc(Cl)cn2)nnc1-c1n[nH]c2ccccc12` [Example 426.0, (2S,3R)-3-(5-chloropyrimidin-2-yl)-N-(4-(4,6-dimethoxypyrimidin-5-yl)-5-(1H-indazol-3-yl)-4H-1,2,4-triazol-3-yl)butane-2-sulfonamide], 14 nM.
As to `COc1ccc([C@@H](C)[C@H](C)S(=O)(=O)Nc2nnc(-c3ccn(C)n3)n2-c2c(OC)cccc2OC)nc1` [Example 459.0, (2S,3R)-N-(4-(2,6-dimethoxyphenyl)-5-(1-methyl-1H-pyrazol-3-yl)-4H-1,2,4-triazol-3-yl)-3-(5-methoxy-2-pyridinyl)-2-butanesulfonamide], the EC50 was 0.33 nM.
For the compound `COc1ccc(N2CCOCC2=O)cc1-n1c(NS(=O)(=O)CCc2ccc(Cl)cc2)nnc1-c1cccs1` [Example 127.0, 2-(4-Chlorophenyl)-N-(4-(2-methoxy-5-(3-oxo-4-morpholinyl)phenyl)-5-(2-thiophenyl)-4H-1,2,4-triazol-3-yl)ethanesulfonamide], the EC50 was 300 nM.
